# In PubChem BioAssay AID720588 (Broad Institute, 2013):
# Active and inactive are the calls of the source.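 Rule for the calls: active = fitted curve falls past a set limit of signal loss at no more than twice the top dose; inconclusive = flat fit between 30 and 70% signal loss, or poor fit; inactive = signal rise, flat within 30%, or crossing too high.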
# Assay: HEK293T cell cytotoxicity, dose response, cytotoxicity control, CellTiter-Glo luminescence, cherry-pick, set 3 (AID 720588)
# Conditions: HEK293T viability, CellTiter-Glo ATP luminescence, 72 h
Structure (SMILES),"activity change, negative = cytotoxicity (at 26 µM (top of the series))",also measured
COc1ccc(NC(=O)N2CCCCN3[C@H](CO)[C@H](c4ccc(C#CCC(C)C)cc4)[C@H]3C2)cc1,-56.2% (inactive),–
COc1cccc(CN2CCC2(C)C(=O)Nc2cccc3cccnc23)c1F (centres undefined),-6.02% (inactive),–
O=C(COC(=O)c1ccc[nH]c1=O)Nc1ccc(N2CCCCC2)cc1,-10.3% (inactive),–
O=C(N/N=C/c1cnc(N2CCCCC2)s1)c1ccc(C(F)(F)F)cc1,-9.42% (inactive),–
COC(=O)C[C@H]1CC[C@H]2[C@H](COc3ccc(NC(=O)Nc4cccc(Cl)c4)cc3C(=O)N2C)O1,-28.3% (inactive),–
Cc1ccc(S(=O)(=O)N(C)C[C@@H]2Oc3cc(C#Cc4ccncc4)ccc3S(=O)(=O)N([C@@H](C)CO)C[C@H]2C)cc1,-17% (inactive),–
COc1ccc(C2=Nn3c(nnc3-c3ccccc3OC)SC2)cc1OCC1CC1,-31.8% (inactive),–
O=C(Nc1cccc(Oc2ccc3c(c2)C(=O)NC3=O)c1)c1cccs1,-22.5% (inactive),–
CC(=O)Nc1cccc(-c2ccnc3c2CC(C)(C(=O)NCc2ccc(N(C)C)cc2)O3)c1 (centres undefined),-10.9% (inactive),–
CC(=O)Nc1ccc(OCC(=O)N(CC(C)C)C2CCS(=O)(=O)C2)cc1 (centres undefined),10.7% (inactive),–
Cc1nn(-c2ccc(F)cc2)c2nc(N)c(C#N)c(-c3ccc(O)c(O)c3)c12,-12.7% (inactive),–
COc1cc(/C=C/C(=O)CC(=O)/C=C/c2ccc(O)c(OC)c2)ccc1O,-41.3% (inactive),–
O=C(O)c1cccc(N/N=C/c2ccc(OC(F)(F)F)cc2)c1,11.3% (inactive),–
CC(=O)c1ccc(N=Nc2ccc(C)cc2)cc1,-17% (inactive),–
CN1C(=O)c2cc(NC(=O)c3ccc(C(F)(F)F)cc3)ccc2OC[C@@H]2O[C@@H](CC(=O)NC3Cc4ccccc4C3)CC[C@H]21,-32.5% (inactive),–
Nc1ccc2c(c1)OC1(CCCC1)O2,-16.1% (inactive),–
O=C(Nc1ccc(OC(=O)N2CCCCC2)cc1)N1CCOCC1,-2.87% (inactive),–
Nc1sc(-c2ccccc2)cc1-c1n[nH]c(=S)n1C1CCCCC1,-4.9% (inactive),–
C[C@@H]1CN([C@H](C)CO)C(=O)c2cc(C#CCc3ccccc3)cnc2O[C@@H]1CN(C)Cc1cccc(F)c1,-3.37% (inactive),–
COc1ccc(/C=C/C(=O)c2cc(F)ccc2OC(=O)c2ccccc2OC)cc1OC,-12.6% (inactive),–
CCc1ccc(/C=C2\SC(=S)N(CCCC(=O)NCCCN3CCOCC3)C2=O)cc1,-13.1% (inactive),–
CCc1ccc(S(=O)(=O)c2ccc(-n3nc(C)cc3N)cc2)cc1,-6.44% (inactive),–
Cc1ccc(/C=C/C(=O)N2CCN(S(=O)(=O)c3c(C)c(C)cc(C)c3C)CC2)o1,16.1% (inactive),–
CCOC(=O)C1CCCCN1C(=O)CCc1c(C)nc2cc(-c3ccccc3)nn2c1C (centres undefined),-10.8% (inactive),–
COC(=O)C[C@@H]1CC[C@H]2[C@H](COc3ccc(NC(=O)Nc4ccc(C#N)cc4)cc3C(=O)N2C)O1,–,"activity change, negative = cytotoxicity (at 23.5 µM (top of the series)): 17.6% (inactive)"

Structure (SMILES),"activity change, negative = cytotoxicity (at 26 µM (top of the series))",also measured
COc1ccc(CN(C)C[C@H]2Oc3ccc(NC(=O)CCCCCC(=O)Nc4ccccc4N)cc3CC(=O)N([C@H](C)CO)C[C@H]2C)cc1,–,"activity change, negative = cytotoxicity (at 21 µM (top of the series)): -29.4% (inactive)"
Brc1ccc(CSc2nnc(-c3ccco3)o2)cc1,-18% (inactive),–
COc1cc(OC)cc(-c2cc3nc(C)c(CCC(=O)NCc4ccccc4)c(C)n3n2)c1,-4.7% (inactive),–
O=C(O)c1cccc(N/N=C/c2cccs2)c1,-19.1% (inactive),–
C[C@H](CO)N1C[C@H](C)[C@@H](CN(C)Cc2ccc(Oc3ccccc3)cc2)Oc2ccc(NS(=O)(=O)c3ccc(Cl)cc3)cc2CC1=O,-17.7% (inactive),–
C[C@@H]1CN([C@H](C)CO)S(=O)(=O)c2ccc(C#CC3CC3)cc2O[C@@H]1CN(C)Cc1ccccc1F,-30.1% (inactive),–
O=C(/C=C/c1ccc(Cl)cc1Cl)N(Cc1ccc(Cl)cc1)C1CCS(=O)(=O)C1 (centres undefined),-14.5% (inactive),–
COC(=O)C(CC#Cc1ccc2c(c1)[C@]1(C(=O)N2)[C@H](c2ccc(OCCO)cc2)N2[C@H](c3ccccc3)[C@H](c3ccccc3)OC(=O)[C@H]2[C@@H]1C(=O)N1CCN(c2ncccn2)CC1)C(=O)OC,1.09% (inactive),–
Cc1ccsc1C(=O)OCC(=O)NCCC1=CCCCC1,-24.7% (inactive),–
O=C(O)c1ccccc1C(=O)Nc1ccc(Oc2cccc3ccccc23)cc1,-24.2% (inactive),–
COc1ccc(C2=Nn3c([n+](C)c4ccccc43)SC2)cc1,-33.2% (inactive),–
O=C(c1cccc(S(=O)(=O)NCc2ccccc2)c1)N1CCN(c2ccccc2)CC1,-21.2% (inactive),–
Cc1ccc(/C=C2\SC(=S)N(CCC(=O)NNC(=O)c3ccccc3O)C2=O)cc1,24.1% (inactive),–
OC[C@H]1O[C@@H](n2cnc3c(NCc4ccco4)ncnc32)[C@H](O)[C@@H]1O,-42.7% (inactive),–
Cc1ccsc1/C=N/Nc1cccc(C(=O)O)c1,-23% (inactive),–
CN=c1scc(-c2ccccc2F)n1/N=C/c1ccc(O)c(O)c1O,-25.3% (inactive),–
COC(=O)C[C@@H]1CC[C@@H]2[C@H](COc3ccc(NC(=O)Nc4cccc(Cl)c4)cc3C(=O)N2C)O1,–,"activity change, negative = cytotoxicity (at 2.85 µM (top of the series)): 39.1% (inactive)"
O=c1c2ccccc2oc2cc(C#CC3(O)CCCCC3)ccc12,15.7% (inactive),–
O=C1c2ccccc2C(=O)N1CCCCNc1ccccc1,4.32% (inactive),–
c1ccc(-c2ccc([C@H]3[C@H]4CNC[C@@H]3N4Cc3cc(-c4ccccc4)on3)cc2)cc1,26.6% (inactive),–
COC(=O)Cc1ccc(NC(=O)c2ccccc2Cl)cc1,-2.38% (inactive),–
O=C(CNC(=O)Cc1ccccc1)N=Nc1c(O)n(Cc2ccc3c(c2)OCO3)c2ccccc12,-23.2% (inactive),–
COc1ccc(CNc2ncc(-c3ccc(F)cc3)n2C)c2ccccc12,-13.3% (inactive),–
COc1ccc(-c2sc3ccccc3c2-c2ccc(OCCN3CCCCC3)cc2)cc1,-16% (inactive),–
O=C(O)c1ccc(N/N=C/c2c(F)cccc2Cl)cc1,-29.9% (inactive),–

Structure (SMILES),"activity change, negative = cytotoxicity (at 26 µM (top of the series))",also measured
Cc1ccc(S(=O)(=O)Nc2ccc3c(c2)C(=O)N([C@H](C)CO)C[C@@H](C)[C@@H](CN(C)Cc2ccc(C(=O)Nc4ccccc4N)cc2)O3)cc1,-2.74% (inactive),–
C/C=C/c1ccc(C2[C@@H]3CN(C(=O)Cc4ccccc4)C[C@H]2N3)cc1 (some centres undefined),18% (inactive),–
CCOC(=O)Cc1csc(NC(=S)NC(=O)c2ccc(C)cc2)n1,-21.9% (inactive),–
COC(=O)C[C@@H]1CC[C@@H]2[C@@H](COc3ccc(NC(=O)Nc4ccccc4C)cc3C(=O)N2C)O1,–,"activity change, negative = cytotoxicity (at 23.5 µM (top of the series)): 19.2% (inactive)"
COc1ccc(-c2nc3c(s2)CCc2onc(-c4ccc(OC)cc4)c2-3)cc1,-17.8% (inactive),–
COc1ccc(C(=O)OCC(=O)Nc2ccc(Cl)c(C(F)(F)F)c2)c(OC)c1OC,6.28% (inactive),–
CCCC[C@@H]1Cc2[nH][nH]c(=O)c2[C@H](c2ccc3ccccc3c2)O1,16.6% (inactive),–
Cc1c(CCOC(=O)CC23CC4CC(CC(C)(C4)C2)C3)sc[n+]1CC(=O)c1ccccc1,12.1% (inactive),–
COC(=O)C[C@@H]1CC[C@@H]2[C@@H](COc3ccc(NC(=O)Nc4cccc(F)c4)cc3C(=O)N2C)O1,-28.1% (inactive),–
COc1cc(-c2cnc3c(NC=O)cc(-c4cccc(NC(C)=O)c4)cn23)cc(OC)c1OC,27.3% (inactive),–
COC(=O)C[C@H]1C=C[C@@H](NC(=O)Nc2ccc(C(F)(F)F)cc2)[C@H](CO)O1,4.22% (inactive),–
COc1cc(C(c2c(C)[nH][nH]c2=O)c2c(C)[nH][nH]c2=O)ccc1OC(C)C,-1.41% (inactive),–
O=C(NCCc1ccccc1)c1ccccc1NC(=O)C1CCCO1 (centres undefined),5.83% (inactive),–
COc1ccc(Nc2oc(COc3ccccc3OC)nc2C#N)cc1,-13.8% (inactive),–
O=C1NC2C(=CC(O)C(O)C2O)c2cc3c(cc21)OCO3 (centres undefined),-41.4% (inactive),–
Cc1c(Cl)cccc1NC(=O)CCC(=O)N/N=C/c1ccc[nH]1,12% (inactive),–
CCN1CCN(/C=N/c2nc3c(s2)CCCC3)CC1,-6.91% (inactive),–
CCCCNC1=CC(=O)C(=O)c2ccccc21,-32.1% (inactive),–
Cc1ccccc1N=Nc1c(O)n(C)c2ccccc12,2.96% (inactive),–
C[C@@H]1CN([C@@H](C)CO)C(=O)c2cc(NS(=O)(=O)c3ccccc3)ccc2O[C@@H]1CN(C)Cc1ccc(C(=O)Nc2ccccc2N)cc1,-19.2% (inactive),–
COC(=O)C[C@@H]1CC[C@@H]2[C@@H](COc3ccc(NC(=O)Nc4ccc(C#N)cc4)cc3C(=O)N2C)O1,47.6% (inactive),–
COc1ccc(OC)c(-c2cc(C(F)(F)F)c3c(n2)sc2c(O)cc(=O)[nH]c23)c1,2.36% (inactive),–
O=C(Nc1cccc(S(=O)(=O)N2CCCC2)c1)c1ccc(Cl)nc1,-35.5% (inactive),–
Cc1cc(C(=O)Nc2ccc3c(c2)C(=O)N(C)[C@@H]2CC[C@H](CC(=O)N[C@H](C)c4ccccc4)O[C@H]2CO3)no1,8.37% (inactive),–
